US20210251991A1, “SUBSTITUTED 2,2'-BIPYRIMIDINYL COMPOUNDS, ANALOGUES THEREOF, AND METHODS USING SAME” (priority 2018, published 2021)

Each compound was assayed on HBsAg in HepG2.2.15 cells (assay: HBsAg assay: inhibition of HBsAg in HepG2.2.15 cells (chemiluminescence immunoassay of supernatant)). Details: Hepatitis B virus, HepG2.2.15, 144 h, read-out: sAg EC50, HepG2.2.15 cells, supernatant collected at day 6 after exposure, HBsAg CLIA.
Format: cell-based, hepatitis B virus
Description: Inhibition of HBsAg was determined in HepG2.2.15 cells. Cells were maintained in culture medium containing 10% fetal calf serum, […], Glutamine, penicillin/streptomycin. Cells were seeded in 96-well collagen-coated plate at a density of 30,000 cells/well. Serially diluted compounds were added to cells next day at the final DMSO concentration of 0.5%. Cells were incubated with compounds for 2-3 days, after which medium was removed. Fresh medium containing compounds was added to cells for additional 3-4 days. At day 6 after exposure of compounds, supernatant was collected, the HBsAg immunoassay (microplate-based chemiluminescence immunoassay kits, CLIA, Autobio Diagnosics Co., Zhengzhou, China, Catalog #CL0310-2) was used to determine the level of HBsAg according to manufactory instruction. Dose-response curves were generated and the EC50 value (effective concentrations that achieved 50% inhibitory effect) were determined using XLfit software. In addition, cells were seeded at a density of 5,000 cells/well for determination of cell viability in the presence and absence of compounds by using CellTiter-Glo reagent (Promega).

Going from `Fc1cnc(-c2ncccn2)nc1N1CC2CCC1c1ccccc12` (centres unmarked) [Example 80, 10-(5-Fluoro-[2,2′-bipyrimidin]-4-yl)-1,2,3,4-tetrahydro-1,4-(epiminomethano)naphthalene] to `Cc1cnc(-c2ncccn2)nc1N1CC2CCC1c1ccccc12` (centres unmarked) [Example 81, 10-(5-Methyl-[2,2′-bipyrimidin]-4-yl)-1,2,3,4-tetrahydro-1,4-(epiminomethano)naphthalene], the EC50 falls from 700 nM to 280 nM (2.5-fold). The second is the more potent here.

Going from `CCC1c2cc(F)c(F)cc2CN1c1nc(-c2ncccn2)ncc1F` (centres unmarked) [Example 51, 1-Ethyl-5,6-difluoro-2-(5-fluoro-[2,2′-bipyrimidin]-4-yl)isoindoline] to `CCC1c2cc(F)c(F)cc2CN1c1ccnc(-c2ncccn2)n1` (centres unmarked) [Example 48, 2-([2,2′-Bipyrimidin]-4-yl)-1-ethyl-5,6-difluoroisoindoline], the EC50 rises from 27 nM to 92 nM (3.4-fold).

`CCC1c2ccc(F)c(F)c2CCN1c1cnc(C(=O)O)nc1` (centres unmarked) [Example 113, 5-(1-Ethyl-5,6-difluoro-3,4-dihydro-1H-isoquinolin-2-yl)pyrimidine-2-carboxylic Acid] and `CCC1c2ccc(F)c(F)c2CCN1c1cnc(-c2ncccn2)nc1` (centres unmarked) [Example 32, 1-Ethyl-5,6-difluoro-2-(2-pyrimidin-2-ylpyrimidin-5-yl)-3,4-dihydro-1H-isoquinoline] are the same in EC50: 2000 nM for the first, 2000 nM for the second.

`CCC1c2cc(OC)c(OC)cc2CN1c1nc(-c2ncccn2)nc2c1COC2` (centres unmarked) [Example 92, 4-(1-Ethyl-5,6-dimethoxyisoindolin-2-yl)-2-(pyrimidin-2-yl)-5,7-dihydrofuro[3,4-d]pyrimidine] and `CCC1c2cc(OC)c(OC)cc2CN1c1nc(-c2ncccn2)nc2scnc12` (centres unmarked) [Example 93, 7-(1-Ethyl-5,6-dimethoxy-isoindolin-2-yl)-5-pyrimidin-2-yl-thiazolo[5,4-d]pyrimidine] are within 1.5-fold of each other in EC50: 180 nM for the first, 200 nM for the second.

Going from `CCC1c2cc(F)c(OC)cc2CCN1c1ccnc(C(N)=O)n1` (centres unmarked) [Example 120, 4-(1-Ethyl-7-fluoro-6-methoxy-3,4-dihydro-1H-isoquinolin-2-yl)pyrimidine-2-carboxamide] to `CCC1c2cc(F)c(OC)cc2CN1c1cnc(C(=O)Nc2ccccn2)nc1` (centres unmarked) [Example 106, 5-(1-Ethyl-6-fluoro-5-methoxyisoindolin-2-yl)-N-(pyridin-2-yl)pyrimidine-2-carboxamide], the EC50 falls from 14000 nM to 2000 nM (7-fold). The second is the more potent here.

First: COc1cc2c(cc1OC)C1CCC2N1c1nc(-c2ncccn2)ncc1C [Example 88, 6,7-Dimethoxy-9-(5-methyl-[2,2′-bipyrimidin]-4-yl)-1,2,3,4-tetrahydro-1,4-epiminonaphthalene]
Second: CCC1c2cc(OC)c(OC)cc2CN1c1nc(-c2ncccn2)ncc1NC (centres unmarked) [Example 59, 4-(1-Ethyl-5,6-dimethoxyisoindolin-2-yl)-N-methyl-[2,2′-bipyrimidin]-5-amine]
The EC50 of the first is 15-fold higher: 2000 nM for the first, 130 nM for the second.

Going from `Fc1cc(F)c2c(c1)CN(c1cnc(-c3ncccn3)nc1)CC2` [Example 1, 2-([2,2′-Bipyrimidin]-5-yl)-5,7-difluoro-1,2,3,4-tetrahydroisoquinoline] to `Fc1cc2c(cc1F)CN(c1ccnc(-c3ncccn3)n1)CC2` [Example 17, 2-([2,2′-Bipyrimidin]-4-yl)-6,7-difluoro-1,2,3,4-tetrahydroisoquinoline], the EC50 falls from 1900 nM to 610 nM (3.1-fold). The second is the more potent here.

First: CC1c2ccccc2CCN1c1cnc(-c2ncccn2)nc1 (centres unmarked) [Example 6, 1-Methyl-2-(2-pyrimidin-2-ylpyrimidin-5-yl)-3,4-dihydro-1H-isoquinoline]
Second: CCC1c2ccccc2CCN1c1cnc(-c2ncccn2)nc1 (centres unmarked) [Example 10, 2-([2,2′-Bipyrimidin]-5-yl)-1-ethyl-1,2,3,4-tetrahydroisoquinoline]
The EC50 of the first is 5.6-fold higher: 1400 nM for the first, 250 nM for the second. The second is the more potent here.

First: Fc1cnc(-c2ncccn2)nc1N1C2CCC1c1ccccc12 [Example 86, 9-(5-Fluoro-[2,2′-bipyrimidin]-4-yl)-1,2,3,4-tetrahydro-1,4-epiminonaphthalene]
Second: c1cnc(-c2ncc(N3CC4CCC3c3ccccc34)cn2)nc1 (centres unmarked) [Example 20, 10-([2,2′-Bipyrimidin]-5-yl)-1,2,3,4-tetrahydro-1,4-(epiminomethano) naphthalene]
The EC50 of the first is 13-fold lower: 2400 nM for the first, 32000 nM for the second. The first is the more potent here.

Going from `CCC1c2ccccc2CCN1c1cnc2c(ccc3cccnc32)c1` (centres unmarked) [Example 122, 3-(1-Ethyl-3,4-dihydroisoquinolin-2(1H)-yl)-1,10-phenanthroline] to `CCC1c2cc(OC)c(F)c(F)c2CCN1c1cnc(-c2ncccn2)nc1` (centres unmarked) [Example 29, 1-Ethyl-5,6-difluoro-7-methoxy-2-(2-pyrimidin-2-ylpyrimidin-5-yl)-3,4-dihydro-1H-isoquinoline], the EC50 falls from 1200 nM to 170 nM (7.1-fold).

Compared with `CCC1c2cc(OC)c(OC)cc2CN1c1ccnc(-c2ncccn2)n1` (centres unmarked) [Example 55, 2-([2,2′-Bipyrimidin]-4-yl)-1-ethyl-5,6-dimethoxyisoindoline], `CCC1c2c(OC)ccc(F)c2CCN1c1ccnc(-c2ncccn2)n1` (centres unmarked) [Example 42, 1-Ethyl-5-fluoro-8-methoxy-2-(2-pyrimidin-2-ylpyrimidin-4-yl)-3,4-dihydro-1H-isoquinoline] is 2.6-fold higher in EC50: 24 nM for the first, 62 nM for the second. The first is the more potent here.

Compared with `CCC1c2ccc(F)c(F)c2OCCN1c1ccnc(-c2ncccn2)n1` (centres unmarked) [Example 126, 5-Ethyl-8,9-difluoro-4-(2-pyrimidin-2-ylpyrimidin-4-yl)-3,5-dihydro-2H-1,4-benzoxazepine], `O=c1[nH]cccc1-c1nccc(N2CCc3cc(F)c(F)cc3C2)n1` [Example 111, 3-[4-(6,7-Difluoro-3,4-dihydro-1H-isoquinolin-2-yl)pyrimidin-2-yl]pyridin-2-ol] is 1.6-fold higher in EC50: 28000 nM for the first, 46000 nM for the second. The first is the more potent here.

Same assay, conditions: read-out: sAg EC50; HepG2.2.15 cells, supernatant collected at day 6 after exposure, HBsAg CLIA

`CCCC1c2ccc(F)c(F)c2CCN1c1ccnc(-c2ncccn2)n1` (single isomer, unassigned) [Example 131, 2-([2,2′-Bipyrimidin]-4-yl)-5,6-difluoro-1-propyl-1,2,3,4-tetrahydroisoquinoline] and `CC1c2ccc(F)c(F)c2CCN1c1ccnc(-c2ncccn2)n1` (single isomer, unassigned) [Example 38, 2-([2,2′-Bipyrimidin]-4-yl)-5,6-difluoro-1-methyl-1,2,3,4-tetrahydroisoquinoline] are within 1.5-fold of each other in EC50: 2000 nM for the first, 1400 nM for the second.

First: CCC1c2cc(F)c(OC)cc2CN1c1cnc(C(=O)NS(C)(=O)=O)nc1 (single isomer, unassigned) [Example 103, 5-(1-Ethyl-6-fluoro-5-methoxyisoindolin-2-yl)-N-(methylsulfonyl)pyrimidine-2-carboxamide]
Second: CCC1c2cc(F)c(OC)cc2CN1c1cnc(C(=O)O)nc1 (single isomer, unassigned) [Example 99, 5-(1-Ethyl-6-fluoro-5-methoxyisoindolin-2-yl)pyrimidine-2-carboxylic Acid]
The EC50 of the first is 12-fold lower: 600 nM for the first, 7000 nM for the second.

Going from `CCC1c2c(OC)ccc(F)c2CCN1c1ccnc(-c2ncccn2)n1` (single isomer, unassigned) [Example 44, 1-Ethyl-5-fluoro-8-methoxy-2-(2-pyrimidin-2-ylpyrimidin-4-yl)-3,4-dihydro-1H-isoquinoline] to `CCC1c2cc(F)c(OC)cc2CCN1c1ccnc(-c2ncccn2)n1` (single isomer, unassigned) [Example 128, 2-(2,2′-Bipyrimidin-4-yl)-1-ethyl-7-fluoro-6-methoxy-1,2,3,4-tetrahydroisoquinoline], the EC50 falls from 7000 nM to 82 nM (85-fold).

Compared with `CCC1c2cc(F)c(OC)cc2CN1c1nc(-c2ncccn2)ncc1OC` (single isomer, unassigned) [Example 73, 1-Ethyl-6-fluoro-5-methoxy-2-(5-methoxy-[2,2′-bipyrimidin]-4-yl)isoindoline], `CCC1c2cc(F)c(OC)cc2CN1c1nc(-c2ncccn2)ncc1C` (single isomer, unassigned) [Example 69, 1-Ethyl-6-fluoro-5-methoxy-2-(5-methyl-[2,2′-bipyrimidin]-4-yl)isoindoline] is 17-fold lower in EC50: 1000 nM for the first, 59 nM for the second.

Going from `CCC1c2ccc(F)c(F)c2CCN1c1cnc(-c2ncccn2)nc1` (single isomer, unassigned) [Example 33, 1-Ethyl-5,6-difluoro-2-(2-pyrimidin-2-ylpyrimidin-5-yl)-3,4-dihydro-1H-isoquinoline] to `CCC1c2cc(F)c(OC)cc2CN1c1nc(-c2ncccn2)ncc1F` (single isomer, unassigned) [Example 71, 1-Ethyl-6-fluoro-2-(5-fluoro-[2,2′-bipyrimidin]-4-yl)-5-methoxyisoindoline], the EC50 falls from 390 nM to 3 nM (130-fold). The second is the more potent here.

Going from `CCC1c2cc(F)c(OC)cc2CN1c1ccnc(C(=O)NC)n1` (single isomer, unassigned) [Example 109, 4-(1-Ethyl-6-fluoro-5-methoxyisoindolin-2-yl)-N-methylpyrimidine-2-carboxamide] to `CCC1c2cc(F)c(OC)cc2CCN1c1cnc(C(=O)O)nc1` (single isomer, unassigned) [Example 114, 5-(1-Ethyl-7-fluoro-6-methoxy-3,4-dihydro-1H-isoquinolin-2-yl)pyrimidine-2-carboxylic Acid], the EC50 falls from 42000 nM to 57 nM (740-fold). The second is the more potent here.

Compared with `CCC1c2cc(F)c(OC)cc2CN1c1nc(-c2ncccn2)ncc1F` (single isomer, unassigned) [Example 72, 1-Ethyl-6-fluoro-2-(5-fluoro-[2,2′-bipyrimidin]-4-yl)-5-methoxyisoindoline], `CCC1c2cc(OC)c(OC)cc2CN1c1ccnc(-c2ncccn2)n1` (single isomer, unassigned) [Example 56, 2-([2,2′-Bipyrimidin]-4-yl)-1-ethyl-5,6-dimethoxyisoindoline] is 5.6-fold lower in EC50: 67 nM for the first, 12 nM for the second.
